Measurements: patent US20120029187A1, “HALOALKYLSULFONANILIDE DERIVATIVE” (Nissan Chemical Industries, Ltd., priority 2009, published 2012)

What was measured:
Format in all cases: in vivo
[1] = tested on: velvetleaf; assay: Test Example 4: herbicidal effect in foliage treatment; settings: dose 3.2 g/a, three weeks after the application
Procedure, shortened: (§1)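 Sowing in sterilized diluvial soil, ~1.5 cm cover; growth 14 d, 25–30° C greenhouse; foliar spray of water-diluted EC at predetermined g/a; scoring 3 wk later on graded scale.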

[2] = tested on: giant foxtail; assay: as above; settings: dose 3.2 g/a, three weeks after the application
Procedure, shortened: as §1

[3] = tested on: Italian ryegrass; assay: as above; settings: dose 3.2 g/a, three weeks after the application
Procedure, shortened: as §1

[4] = tested on: common lambsquater; assay: as above; settings: dose 3.2 g/a, three weeks after the application
Procedure, shortened: as §1

[5] = tested on: water foxtail; assay: as above; settings: dose 3.2 g/a, three weeks after the application
Procedure, shortened: as §1

[6] = tested on: large crabgrass; assay: as above; settings: dose 3.2 g/a, three weeks after the application
Procedure, shortened: as §1

[7] = tested on: posumbu knotweed; assay: as above; settings: dose 3.2 g/a, three weeks after the application
Procedure, shortened: as §1

[8] = tested on: barnyardgrass; assay: as above; settings: dose 3.2 g/a, three weeks after the application
Procedure, shortened: as §1

[9] = tested on: common ragweed; assay: as above; settings: dose 3.2 g/a, three weeks after the application
Procedure, shortened: as §1

[10] = tested on: redroot pigweed; assay: as above; settings: dose 3.2 g/a, three weeks after the application
Procedure, shortened: as §1

[11] = tested on: common chickweed; assay: as above; settings: dose 3.2 g/a, three weeks after the application
Procedure, shortened: as §1

[12] = tested on: transplanted rice; assay: Test Example 1: preemergence treatment under submerged conditions, effect on crop; settings: dose 2.52 g/a
Procedure, shortened: (§2)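 Alluvial soil was flooded to 4 cm, sown with barnyardgrass, bulrush and ducksalad, and planted with 2.5-leaf rice seedlings. On the seeding day, water-diluted emulsifiable concentrates were applied to the water surface at set doses (g/a). After three weeks in a 25 to 30° C. greenhouse, mortality was scored 0–5.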

[13] = tested on: velvetleaf; assay: Test Example 3: herbicidal effects in soil treatment; settings: dose 3.2 g/a
Procedure, shortened: (§3)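 Seeds were sown in sterilized diluvial soil and covered with about 1.5 cm of soil. Compounds, formulated as emulsifiable concentrates and diluted with water, were sprayed evenly over the soil surface at set doses in g/a. Herbicidal effect was scored on a rating scale three weeks later.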

[14] = tested on: giant foxtail; assay: as above; settings: dose 3.2 g/a
Procedure, shortened: as §3

[15] = tested on: Italian ryegrass; assay: as above; settings: dose 3.2 g/a
Procedure, shortened: as §3

[16] = tested on: common lambsquater; assay: as above; settings: dose 3.2 g/a
Procedure, shortened: as §3

[17] = tested on: beadstraw; assay: as above; settings: dose 3.2 g/a
Procedure, shortened: as §3

[18] = tested on: water foxtail; assay: as above; settings: dose 3.2 g/a
Procedure, shortened: as §3

[19] = tested on: large crabgrass; assay: as above; settings: dose 3.2 g/a
Procedure, shortened: as §3

[20] = tested on: barnyardgrass; assay: as above; settings: dose 3.2 g/a
Procedure, shortened: as §3

[21] = tested on: common ragweed; assay: as above; settings: dose 3.2 g/a
Procedure, shortened: as §3

[22] = tested on: redroot pigweed; assay: as above; settings: dose 3.2 g/a
Procedure, shortened: as §3

[23] = tested on: common chickweed; assay: as above; settings: dose 3.2 g/a
Procedure, shortened: as §3

[24] = tested on: ducksalad; assay: Test Example 1: herbicidal effects in preemergence treatment under submerged conditions; settings: dose 2.52 g/a
Procedure, shortened: as §2

[25] = tested on: bulrush; assay: as above; settings: dose 2.52 g/a
Procedure, shortened: as §2

[26] = tested on: barnyardgrass; assay: as above; settings: dose 2.52 g/a
Procedure, shortened: as §2

[27] = tested on: ducksalad; assay: Test Example 2: herbicidal effects during the vegetation period under submerged conditions; settings: treatment during the vegetation period under submerged conditions; dose 2.52 g/a
Procedure, shortened: (§4)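 Barnyardgrass, bulrush and ducksalad were co-sown in alluvial soil flooded to 4 cm and grown in a greenhouse at 25 to 30° C. At the 1- or 2-leaf stage, water-diluted emulsifiable concentrates went onto the water surface at set doses (g/a). Herbicidal effect was scored three weeks later on a graded scale.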

[28] = tested on: bulrush; assay: as above; settings: treatment during the vegetation period under submerged conditions; dose 2.52 g/a
Procedure, shortened: as §4

[29] = tested on: barnyardgrass; assay: as above; settings: treatment during the vegetation period under submerged conditions; dose 2.52 g/a
Procedure, shortened: as §4

[30] = tested on: beadstraw; assay: Test Example 4: herbicidal effect in foliage treatment; settings: dose 3.2 g/a, three weeks after the application
Procedure, shortened: as §1

[31] = tested on: wild oat; assay: as above; settings: dose 3.2 g/a, three weeks after the application
Procedure, shortened: as §1

[32] = tested on: posumbu knotweed; assay: Test Example 3: herbicidal effects in soil treatment; settings: dose 3.2 g/a
Procedure, shortened: as §3

[33] = tested on: wild oat; assay: as above; settings: dose 3.2 g/a
Procedure, shortened: as §3

SMILES | I: velvetleaf, herbicidal effect [1] | E: giant foxtail, herbicidal effect [2] | H: Italian ryegrass, herbicidal effect [3] | L: common lambsquater, herbicidal effect [4] | G: water foxtail, herbicidal effect [5] | D: large crabgrass, herbicidal effect [6] | M: posumbu knotweed, herbicidal effect [7] | A: barnyardgrass, herbicidal effect [8] | J: common ragweed, herbicidal effect [9] | K: redroot pigweed, herbicidal effect [10] | N: common chickweed, herbicidal effect [11] | a: transplanted rice, effect on crop (evaluation scale 0-5) [12] | C: ducksalad, herbicidal effect (evaluation scale 0-5) [24] | B: bulrush, herbicidal effect (evaluation scale 0-5) [25] | A: barnyardgrass, herbicidal effect (evaluation scale 0-5) [26] | C: ducksalad, herbicidal effect (evaluation scale 0-5) [27] | B: bulrush, herbicidal effect (evaluation scale 0-5) [28] | A: barnyardgrass, herbicidal effect (evaluation scale 0-5) [29] | further results
CCC(=O)N(c1ccccc1CN1C(=O)CC(C)(C)OC1C)S(=O)(=O)C(F)(F)F (stereo not shown) [II-73] | 5 (mortality of 90% or above (nearly complete death)) | 4 (mortality of at least 70% and less than 90%) | 5 (mortality of 90% or above (nearly complete death)) | 0 (mortality of less than 5% (almost ineffective)) | 5 (mortality of 90% or above (nearly complete death)) | 4 (mortality of at least 70% and less than 90%) | 4 (mortality of at least 70% and less than 90%) | 5 (mortality of 90% or above (nearly complete death)) | 2 (mortality of at least 20% and less than 40%) | 0 (mortality of less than 5% (almost ineffective)) | 2 (mortality of at least 20% and less than 40%) | 3 (mortality of at least 40% and less than 70%) | 5 (mortality of 90% or above (nearly complete death)) | 5 (mortality of 90% or above (nearly complete death)) | 5 (mortality of 90% or above (nearly complete death)) | 5 (mortality of 90% or above (nearly complete death)) | 5 (mortality of 90% or above (nearly complete death)) | 5 (mortality of 90% or above (nearly complete death)) | I: velvetleaf, herbicidal effect (evaluation scale 0-5) [13]: 5 (mortality of 90% or above (nearly complete death)); E: giant foxtail, herbicidal effect (evaluation scale 0-5) [14]: 5 (mortality of 90% or above (nearly complete death)); H: Italian ryegrass, herbicidal effect (evaluation scale 0-5) [15]: 5 (mortality of 90% or above (nearly complete death)); L: common lambsquater, herbicidal effect (evaluation scale 0-5) [16]: 0 (mortality of less than 5% (almost ineffective)); O: beadstraw, herbicidal effect (evaluation scale 0-5) [17]: 4 (mortality of at least 70% and less than 90%); G: water foxtail, herbicidal effect (evaluation scale 0-5) [18]: 5 (mortality of 90% or above (nearly complete death)); D: large crabgrass, herbicidal effect (evaluation scale 0-5) [19]: 5 (mortality of 90% or above (nearly complete death)); A: barnyardgrass, herbicidal effect (evaluation scale 0-5) [20]: 5 (mortality of 90% or above (nearly complete death)); J: common ragweed, herbicidal effect (evaluation scale 0-5) [21]: 3 (mortality of at least 40% and less than 70%); K: redroot pigweed, herbicidal effect (evaluation scale 0-5) [22]: 0 (mortality of less than 5% (almost ineffective)); N: common chickweed, herbicidal effect (evaluation scale 0-5) [23]: 0 (mortality of less than 5% (almost ineffective))
CCN1COCN(Cc2ccccc2N(C(=O)OCCCl)S(=O)(=O)C(F)(F)F)C1=O [IV-7] | 4 (mortality of at least 70% and less than 90%) | 4 (mortality of at least 70% and less than 90%) | 3 (mortality of at least 40% and less than 70%) | 4 (mortality of at least 70% and less than 90%) | 5 (mortality of 90% or above (nearly complete death)) | 4 (mortality of at least 70% and less than 90%) | 0 (mortality of less than 5% (almost ineffective)) | 4 (mortality of at least 70% and less than 90%) | 3 (mortality of at least 40% and less than 70%) | 0 (mortality of less than 5% (almost ineffective)) | 4 (mortality of at least 70% and less than 90%) | 0 (mortality of less than 5% (almost ineffective)) | 4 (mortality of at least 70% and less than 90%) | 5 (mortality of 90% or above (nearly complete death)) | 5 (mortality of 90% or above (nearly complete death)) | 5 (mortality of 90% or above (nearly complete death)) | 5 (mortality of 90% or above (nearly complete death)) | 5 (mortality of 90% or above (nearly complete death)) | O: beadstraw, herbicidal effect [30]: 3 (mortality of at least 40% and less than 70%); F: wild oat, herbicidal effect [31]: 0 (mortality of less than 5% (almost ineffective)); herbicidal effect, I: velvetleaf [13]: 5 (mortality of 90% or above (nearly complete death)); herbicidal effect, E: giant foxtail [14]: 3 (mortality of at least 40% and less than 70%); herbicidal effect, H: Italian ryegrass [15]: 4 (mortality of at least 70% and less than 90%); herbicidal effect, L: common lambsquater [16]: 4 (mortality of at least 70% and less than 90%); herbicidal effect, G: water foxtail [18]: 5 (mortality of 90% or above (nearly complete death)); herbicidal effect, D: large crabgrass [19]: 5 (mortality of 90% or above (nearly complete death)); herbicidal effect, M: posumbu knotweed [32]: 0 (mortality of less than 5% (almost ineffective)); herbicidal effect, A: barnyardgrass [20]: 5 (mortality of 90% or above (nearly complete death)); herbicidal effect, J: common ragweed [21]: 0 (mortality of less than 5% (almost ineffective)); herbicidal effect, F: wild oat [33]: 1 (mortality of at least 5% and less than 20%); herbicidal effect, K: redroot pigweed [22]: 1 (mortality of at least 5% and less than 20%); herbicidal effect, N: common chickweed [23]: 4 (mortality of at least 70% and less than 90%)
